Assay type in all cases: in vivo, rat
Series [1] has as its system CCI-induced decrease in mechanical paw withdrawal threshold. In words: chronic constriction injury (CCI) model of neuropathic pain: mechanical paw withdrawal threshold measured with an algesymeter. To be noted: for known minimum effective dose in the CCI model: b.i.d. p.o., shown previously to have efficacy in the CCI model. The method, then:
(§1) All experiments were performed using the chronic constriction injury (CCI) model of neuropathic pain in the rat. Under isoflurane anaesthesia, the common left sciatic nerve of male random hooded rats (180-220 g) was exposed at mid thigh level. Four ligatures of chromic gut (4.0) were tied loosely around the nerve with a 1 mm spacing between each. The wound was then closed and secured with suture clips. The surgical procedure was identical for the sham operated animals except the sciatic nerve was not ligated. The animals were allowed a period of 10 days to recover from the surgery before any behavioural testing began. The effect of the test compound on CCI-induced decrease in mechanical paw withdrawal threshold was measured using an algesymeter (Randall & Selitto, 1957). The presence of mechanical allodynia was assessed using Von Frey hair mono filaments (range: 4.19-84.96 g). The rats were lightly restrained and placed upon a metal grid floor, from below which the monofilaments were applied to the plantar surface of the hindpaws. The lowest monofilament to produce a withdrawal was the response recorded.
(§2) All data were expressed as mean±s.e.mean. Statistical analysis was carried out to compare the difference between the drug treated group and vehicle treated groups using unpaired Student's t-test (P<0.05 considered significant).

Series [2] has as its system CCI-induced tactile allodynia. The experiment in a line: CCI model of neuropathic pain: mechanical (tactile) allodynia assessed with Von Frey hair monofilaments. As to the method: as §1, §2
A short description of series [3]: observation of adverse side effects during chronic dosing in the CCI experiments. The method, then:
Lamotrigine (30 mgkg^−1 b.i.d. p.o.) was dosed chronically for a period of 12 days. The dose chosen was determined from previous “in-house” data and doses believed to be efficacious in the clinical treatment of neuropathic pain.
Bupropion (10 mgkg^−1 b.i.d. p.o.) was dosed chronically for a period of 8 days. The dose chosen reflects both previous “in-house” data and that which is believed to be efficacious in the clinical treatment of neuropathic pain.

The mark [4] stands for this setting: bupropion 10 mgkg^−1 b.i.d. p.o., days 47-54.

Each structure is given as a SMILES string.

In the case of `Nc1nnc(-c2cccc(Cl)c2Cl)c(N)n1` [lamotrigine], the “known minimum effective dose in the CCI model” value in series [1] is 10 mgkg^−1. Besides, in series [1] (lamotrigine 30 mgkg^−1 twice daily p.o., days 13-24 post-operative), the “reversal of the CCI-induced decrease in paw-withdrawal threshold to that of sham-operated animals” value was “fully reversed”. The “post-operative day until which the analgesic effect was maintained following cessation of treatment” value in series [1] (lamotrigine 30 mgkg^−1 twice daily p.o., dosing ended day 24) is listed as 37 day post-operative. Moreover, the “post-operative day by which the decrease in paw-withdrawal threshold was fully reversed” value in series [1] (lamotrigine 30 mgkg^−1 twice daily p.o., dosing from day 13 post-operative) was not above 16 days. For the same compound, the “effect on CCI-induced tactile allodynia (Von Frey hair withdrawal threshold) during chronic dosing” value in series [2] (lamotrigine 30 mgkg^−1 b.i.d. p.o.) is on record as “transient reversal”. Besides, the “effect on tactile allodynia following cessation of treatment, compared to vehicle treated group” value in series [2] (lamotrigine 30 mgkg^−1 b.i.d. p.o., after cessation) is “small reversal”. Moreover, the “adverse side effects as a result of the surgery or chronic dosing schedule” value in series [3] (lamotrigine 30 mgkg^−1 b.i.d. p.o. for 12 days) was “No adverse side effects were observed”.
Consider `CC(NC(C)(C)C)C(=O)c1cccc(Cl)c1` (stereo not shown) [bupropion], for which, in series [1], the “known minimum effective dose in the CCI model” value is reported as 10 mgkg^−1. For the same compound, the “effect on paw withdrawal thresholds in sham-operated rats” value in series [1] (bupropion 10 mgkg^−1, first day of dosing only, 1 hour post dose, sham-operated rats) is “small effect”. Further, the “reversal of the fall in paw withdrawal threshold back towards sham-operated levels after a single dose” value in series [1] (bupropion 10 mgkg^−1, single dose) is “immediate reversal”. In series [1] (setting [4]), the “reversal of paw withdrawal threshold during the chronic dosing period” value is reported as “maintained throughout the chronic dosing period” and the “time the reversal of paw withdrawal threshold was maintained following cessation of treatment” value is given as 4 days. The “reversal of tactile allodynia following cessation of treatment” value in series [2] (bupropion 10 mgkg^−1 b.i.d. p.o., after cessation) is reported as “not maintained”. Also, in series [2] (setting [4]), the “effect on tactile allodynia (Von Frey hair withdrawal threshold) during chronic dosing” value was “some effect”. In addition, the “day of maximal reversal of tactile allodynia” value in series [2] (bupropion 10 mgkg^−1 b.i.d. p.o., days 47-54, last day of dosing) was found to be 54 days. Further, in series [3] (bupropion 10 mgkg^−1 b.i.d. p.o. for 8 days), the “adverse side effects as a result of the surgery or chronic dosing schedule” value is reported as “No adverse side effects were observed”.

For the origin of these results see patent US20020147196A1, “Composition and method for treating neuropathic pain” (priority 2001, published 2002).
